Data published in publication PMC8422859, “A Novel Oral Arginase 1/2 Inhibitor Enhances the Antitumor Effect of PD-1 Inhibition in Murine Experimental Gliomas by Altering the Immunosuppressive Environment” (Frontiers in Oncology, 2021).
“Also recorded” adds a separate entry of the source.

What was measured:
[1] = tested on: LN18 glioma cells; assay: Matrigel invasion assay, LN18 co-cultured with BV2 microglia; type: cell-based, human; details: 11 µM, co-culture with BV2, 18 h
Description: BV2 cells were plated onto a 24-well plate at the density of 4×10^4. After 24 h, the invasion assay was performed with tissue culture inserts (6.5 mm Transwell® with 8.0 µm Pore Polycarbonate Membrane Insert, Corning, NY, USA) coated with the Growth Factor Reduced Matrigel™ Matrix (BD Biosciences, San Diego. CA, USA). The Matrigel™ Matrix (50 µL of 1 mg/mL stock solution diluted in fresh DMEM) was dried under sterile conditions (37°C) for 5–6 h. The medium in BV2 cultures was replaced with fresh one 1 h before seeding glioblastoma cells onto the inserts, then LN18 and U87 glioblastoma cells were seeded at 2×10^4/insert on Matrigel-covered membranes in a serum-reduced medium (2% FBS). Untreated glioblastoma cells co-cultured with or without BV2 cells served as positive and negative controls, respectively. Cells were treated with the arginase-1 inhibitors OAT-90, OAT-1617 and OAT-1746 solved in PBS. The cultures were kept in incubator at 37°C with humidified air containing 5% CO2. […] The membranes from Transwell® inserts were cut out and images were acquired using a fluorescence microscope (Leica DM4000B, 10x lens) from the 5 independent fields (bottom; top; left; right side and the middle). Numbers of invading cells were counted using the ImageJ software (NIH, Bethesda, MD, USA). […]

[2] = tested on: glioma-associated CD11b+ cells; assay: RNA-seq of CD11b+ cells from tumor-bearing hemispheres; type: in vivo, mouse
Description: Immediately after sorting, CD11b^+ cells were centrifuged and lysed for further isolation of RNA using the RNeasy Plus Mini Kit (Qiagen, Germany). The integrity and quality of RNA were assessed on an Agilent 2100 Bioanalyzer with an RNA 6000 Pico Kit (Agilent Technologies, CA, USA). A total of 9 strand-specific RNA libraries were prepared for sequencing (2-3 biological replicates/treatment) using a KAPA Stranded mRNA-Seq Kit (Kapa Biosystems, MA, USA). Poly-A mRNAs were purified from 100 ng of total RNA using poly-T-oligo-magnetic beads (Kapa Biosystems, MA, USA). mRNAs were fragmented and a first-strand cDNA was synthesized using reverse transcriptase and random hexamers. […] Final libraries were analyzed using Bioanalyzer and Agilent DNA High Sensitivity chips (Agilent Technologies, Santa Clara, CA, USA) to confirm fragment sizes (~300 bp). Quantification was performed using a Quantus fluorometer and the QuantiFluor dsDNA System (Promega, Madison, Wisconsin, US). […]
Illumina-specific adapters, short reads, and low quality 5’ and 3’ bases were filtered out in the FASTQ format files using Trimmomatic ([27]) tool (version 0.36). The resulting RNA sequencing reads were aligned to a reference mouse genome sequence (mm10) with STAR aligner ([28]) (version 2.6.1b) using the two pass Mode Basic option. […]

[3] = molecular target: T1, recombinant human ARG1 (Homo sapiens, UniProt P05089); assay: Recombinant arginase activity assay, hARG1; type: biochemical; details: 1 h at 37°C, pH 7.4, 10 mM L-arginine, urea detection; read-out: Inhibition of recombinant hARG1: IC50
T1 construct: made in house; host or cells: E. coli
T1 sequence (P05089 1-322): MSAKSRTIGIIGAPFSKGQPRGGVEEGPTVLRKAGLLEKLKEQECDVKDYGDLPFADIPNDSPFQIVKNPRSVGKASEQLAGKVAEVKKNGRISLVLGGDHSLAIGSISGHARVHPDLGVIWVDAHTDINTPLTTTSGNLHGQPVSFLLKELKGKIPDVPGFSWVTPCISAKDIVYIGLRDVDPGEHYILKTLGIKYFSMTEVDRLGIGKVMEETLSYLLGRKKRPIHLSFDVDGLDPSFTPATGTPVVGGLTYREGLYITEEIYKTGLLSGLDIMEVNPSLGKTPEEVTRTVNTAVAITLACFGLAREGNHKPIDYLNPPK
Description: The inhibitory activity towards hARG1 and hARG2 enzymes was assessed using recombinant enzymes biosynthesized using a prokaryotic expression system (E. coli) and purified by fast protein liquid chromatography (FPLC). Briefly, recombinant enzymes were incubated with the tested compounds for 1 h at 37°C in the reaction buffer (100 mM sodium phosphate buffer, 130 mM NaCl, 1 mg/mL BSA, pH 7.4) containing substrate (10 mM L-arginine hydrochloride) and cofactor (200 µM MnCl2). The assay is based on the detection of urea, which is generated during the conversion of L-arginine into L-ornithine catalyzed by arginases. To visualize the product, we adding a mixture of reagent A (4 mM oPA, 50 mM boric acid, 1 M sulfuric acid, 0.03% Brij-35) and reagent B (4 mM NED, 50 mM boric acid, 1 M sulfuric acid, 0.03% Brij-35) in equal proportions. The absorbance was measured at 515 nm. The urea production in the absence of any tested compound was considered as maximal enzyme activity. The absorbance in the absence of arginase (background) was considered as zero activity. Two reference compounds OAT-81 (ABH, no. 222638-65-5) and OAT-90 (2-amino-6-borono-2-(2-(3-(2,4-dichlorophenyl)propyloamino)ethyl) hexanoic acid, and two novel inhibitors OAT-1617 and OAT-1746 (the last three synthesized at OncoArendi Therapeutics) were tested. Normalized values were analyzed using GraphPad Prism 7.0 software and the IC50 values were determined.

## CN(C)C[C@@H]1CC[C@@H](CCB(O)O)C[C@]1(N)C(=O)O [OAT-1746]
[1]
  microglia-induced invasion of LN18 cells: effectively reduced glioma invasion; also recorded: reduced microglia-induced invasion of glioma cells more efficiently
[2]
  differentially expressed genes versus CTR (padj<0.05): over 1800 genes
[3]
  IC50: 0.028 µM
